Experimental data published in patent publication US8835421B2, “Benzimidazole linked pyrrolo[2,1-c[1,4] benzodiazepine hybrids as potential antitumour agents and process for the preparation thereof” (Council of Scientific and Industrial Research, priority 2008, dated 2014).

Experiments:
calf thymus DNA (CT-DNA) = assay: Thermal denaturation studies with duplex-form calf thymus DNA; type: binding; conditions: [PBD]:[DNA] 1:5, CT-DNA 100 μM, ligand 20 μM, sodium phosphate buffer pH 7.00; for ΔTm after incubation at 37° C. for 0 h: 0 h incubation at 37° C.; for ΔTm after incubation at 37° C. for 18 h: 18 h incubation at 37° C.
Experimental: Compounds have been subjected to thermal denaturation studies with duplex-form calf thymus DNA (CT-DNA) using an modification of a reported procedure (Newman, M. S. Carcinog-compr. Surv. 1976, 1, 203; (b) Hecht, S. S.; Loy, M.; Hoffman, Carcinog-compr. Surv. 1976, 1, 325). Working solutions in aqueous buffer (10 mM NaH2PO4/Na2HPO4, 1 mM Na2EDTA, pH 7.00+0.01) containing CT-DNA (100 μm in phosphate) and the PBD (20 μm) have been prepared by addition of concentrated PBD solutions in DMSO to obtain a fixed [PBD]/[DNA] molar ratio of 1:5. The DNA-PBD solutions have been incubated at 37° C. for 0 and 18 h prior to analysis. Samples have been, monitored at 260 nm using a Beckman DU-800 spectrophotometer fitted with high performance temperature controller, and heated at 1° C. min^−1 in the 40-110° C. range. DNA helix→coil transition temperatures (Tm) have been obtained from the maxima in the d(A260)/d T derivative plots. Drug-induced alterations in DNA melting behavior are given by: ΔTm=Tm(DNA+PBD)−Tm(DNA alone), where the Tm value for the PBD-free CT-DNA is 69.1±0.01.
The DNA binding activity for these novel C8-linked benzimidazole-PBD hybrids has been examined by thermal denaturation studies using calf thymus (CT) DNA. […] The data for the compounds 8a-g, 11a-d and 14 is included in Table 1 for comparison.

[1] = system: Leukemia cancer cell lines; assay: NCI in vitro anticancer screen (SRB, 48 h), leukemia; type: cell-based, human; conditions: average of six to nine cell lines; for GI50: Homo sapiens, read-out: Log10 GI50 (converted)
Experimental: (§1) Anticancer activity: In vitro biological activity studies were carried out at the National Cancer Institute (USA).
(§2) The compounds were evaluated for in vitro anticancer activity against sixty human tumour cells derived from nine cancer types (leukemia, non-small-cell lung, colon, CNS, melanoma, ovarian, prostate, and breast cancer) as shown in Table 3. For each compound, dose response curves for each cell line were measured at a minimum of five concentrations at 10 fold dilutions. A protocol of 48 h continuous drug exposure was used and a sulforhodamine B (SRB) protein assay was used to estimate cell viability or growth. The concentration causing 50% cell growth inhibition (GI50), total cell growth inhibition (TGI 0% growth) and 50% cell death (LC50, −50% growth) compared with the control was calculated. The mean graph midpoint values of log10 TGI and log10 LC50 as well as log10 GI50 for 8c, 8e, 11a, 11c and 14 are listed in Table 2.
(§3) Each cancer type represents the average of six to nine different cancer cell lines.

[2] = system: Melanoma cancer cell lines; assay: NCI in vitro anticancer screen (SRB, 48 h), melanoma; type: cell-based, human; conditions: average of six to nine cell lines; for GI50: Homo sapiens, read-out: Log10 GI50 (converted)
Experimental: as §1, §2, §3

CNS cancer cell lines = assay: NCI in vitro anticancer screen (SRB, 48 h), CNS; type: cell-based, human; conditions: average of six to nine cell lines; for GI50: Homo sapiens, read-out: Log10 GI50 (converted)
Experimental: as §1, §2, §3

sixty human tumour cells = assay: NCI in vitro anticancer screen (SRB, 48 h), mean graph midpoints over all cell lines; type: cell-based; conditions: 48 h continuous drug exposure, SRB assay; for Log10LC50 mean graph midpoint (MG_MID): 50% cell death; for Log10GI50 mean graph midpoint (MG_MID): 50% cell growth inhibition; for Log10TGI mean graph midpoint (MG_MID): total cell growth inhibition
Experimental: as §1, §2

Breast cancer cell lines = assay: NCI in vitro anticancer screen (SRB, 48 h), breast; type: cell-based, human; conditions: average of six to nine cell lines; for GI50: Homo sapiens, read-out: Log10 GI50 (converted)
Experimental: as §1, §2, §3

Renal cancer cell lines = assay: NCI in vitro anticancer screen (SRB, 48 h), renal; type: cell-based, human; conditions: average of six to nine cell lines; for GI50: Homo sapiens, read-out: Log10 GI50 (converted)
Experimental: as §1, §2, §3

Colon cancer cell lines = assay: NCI in vitro anticancer screen (SRB, 48 h), colon; type: cell-based, human; conditions: average of six to nine cell lines; for GI50: Homo sapiens, read-out: Log10 GI50 (converted)
Experimental: as §1, §2, §3

[3] = system: Ovarian cancer cell lines; assay: NCI in vitro anticancer screen (SRB, 48 h), ovarian; type: cell-based, human; conditions: average of six to nine cell lines; for GI50: Homo sapiens, read-out: Log10 GI50 (converted)
Experimental: as §1, §2, §3

[4] = system: Prostate cancer cell lines; assay: NCI in vitro anticancer screen (SRB, 48 h), prostate; type: cell-based, human; conditions: average of six to nine cell lines; for GI50: Homo sapiens, read-out: Log10 GI50 (converted)
Experimental: as §1, §2, §3

[5] = system: Non-small-cell-lung cancer cell lines; assay: NCI in vitro anticancer screen (SRB, 48 h), non-small-cell lung; type: cell-based, human; conditions: average of six to nine cell lines; for GI50: Homo sapiens, read-out: Log10 GI50 (converted)
Experimental: as §1, §2, §3

SMILES | ΔTm after incubation at 37° C. for 0 h (calf thymus DNA (CT-DNA)) | ΔTm after incubation at 37° C. for 18 h (calf thymus DNA (CT-DNA)) | GI50 [1] | GI50 [2] | GI50 (CNS cancer cell lines) | Log10LC50 mean graph midpoint (MG_MID) (sixty human tumour cells) | Log10GI50 mean graph midpoint (MG_MID) (sixty human tumour cells) | Log10TGI mean graph midpoint (MG_MID) (sixty human tumour cells) | GI50 (Breast cancer cell lines) | GI50 (Renal cancer cell lines) | GI50 (Colon cancer cell lines) | GI50 [3] | GI50 [4] | GI50 [5] | further results
COc1cc2c(cc1OCCCn1c(-c3ccco3)nc3ccccc31)N=C[C@@H]1CCCN1C2=O [Compound 8a, 7-Methoxy-8-{3-[2-(2-furyl)-1H-benzimidazol-1-yl]propyl}oxy-(11aS)-1,2,3,11a-tetrahydro-5H-pyrrolo[2,1-c][1,4]benzodiazepin-5-one] | 5.1 °C | 6.1 °C |  |  |  |  |  |  |  |  |  |  |  |  | 
COc1cc2c(cc1OCCCCn1c(-c3ccco3)nc3ccccc31)N=C[C@@H]1CCCN1C2=O [Compound 8b, 7-Methoxy-8-{4-[2-(2-furyl)-1H-benzimidazol-1-yl]butyl}oxy-(11aS)-1,2,3,11a-tetrahydro-5H-pyrrolo[2,1-c][1,4]benzodiazepin-5-one] | 0.1 °C | 1.0 °C |  |  |  |  |  |  |  |  |  |  |  |  | 
COc1cc2c(cc1OCCCCCn1c(-c3ccco3)nc3ccccc31)N=C[C@@H]1CCCN1C2=O [Compound 8c, 7-Methoxy-8-{5-[2-(2-furyl)-1H-benzimidazol-1-yl]pentyl}oxy-(11aS)-1,2,3,11a-tetrahydro-5H-pyrrolo[2,1-c][1,4]benzodiazepin-5-one] | 5.1 °C | 7.0 °C | < 0.01 µM | < 0.012 µM | < 0.01 µM | −4.60 | −7.91 | −6.89 | < 0.0162 µM | < 0.012 µM | < 0.012 µM | < 0.01 µM | < 0.0229 µM | < 0.012 µM | 
COc1cc2c(cc1OCCCn1c(-c3cccs3)nc3ccccc31)N=C[C@@H]1CCCN1C2=O [Compound 8d, 7-Methoxy-8-{3-[2-(2-thienyl)-1H-benzimidazol-1-yl]propyl}oxy-(11aS)-1,2,3,11a-tetrahydro-5H-pyrrolo[2,1-c][1,4]benzodiazepin-5-one] | 3.9 °C | 5.1 °C |  |  |  |  |  |  |  |  |  |  |  |  | 
COc1cc2c(cc1OCCCCn1c(-c3cccs3)nc3ccccc31)N=C[C@@H]1CCCN1C2=O [Compound 8e, 7-Methoxy-8-{4-[2-(2-thienyl)-1H-benzimidazol-1-yl]butyl}oxy-(11aS)-1,2,3,11a-tetrahydro-5H-pyrrolo[2,1-c][1,4]benzodiazepin-5-one] | 0.1 °C | 1.0 °C | 1 µM | 1.58 µM | 1.58 µM | −4.51 | −5.81 | −5.18 | 0.912 µM | 1.58 µM | 1.95 µM | 2 µM | 1.32 µM | 2.09 µM | 
COc1cc2c(cc1OCCCCCn1c(-c3cccs3)nc3ccccc31)N=C[C@@H]1CCCN1C2=O [Compound 8f, 7-Methoxy-8-{5-[2-(2-thienyl)-1H-benzimidazol-1-yl]pentyl}oxy-(11aS)-1,2,3,11a-tetrahydro-5H-pyrrolo[2,1-c][1,4]benzodiazepin-5-one] | 6.1 °C | 6.1 °C |  |  |  |  |  |  |  |  |  |  |  |  | 
COc1cc2c(cc1OCCCn1c(-c3cccn3C)nc3ccccc31)N=C[C@@H]1CCCN1C2=O [Compound 8g, 7-Methoxy-8-{3-[2-(1-Methyl-2-pyrrolyl)-1H-benzimidazol-1,4]propyl}-oxy-(11aS)-1,2,3,11a-tetrahydro-5H-pyrrolo[2,1-c][1,4]benzodiazepin-5-one] | 2.0 °C | 3.1 °C |  |  |  |  |  |  |  |  |  |  |  |  | 
COc1cc2c(cc1OCCCn1c(-c3ccccn3)nc3ccccc31)N=C[C@@H]1CCCN1C2=O [Compound 11a, 7-Methoxy-8-{3-[2-(2-pyridyl)-1H-benzimidazol-1-yl]propyl}oxy-(11aS)-1,2,3,11a-tetrahydro-5H-pyrrolo[2,1-c][1,4]benzodiazepin-5-one] | 3.0 °C | 4.2 °C | 3.09 µM | 2.19 µM | 2.51 µM | −4.42 | −5.75 | −5.14 | 1.05 µM | 1.41 µM | 1.91 µM | 1.62 µM | 1.35 µM | 1.58 µM | 
COc1cc2c(cc1OCCCCCn1c(-c3ccccn3)nc3ccccc31)N=C[C@@H]1CCCN1C2=O [Compound 11b, 7-Methoxy-8-{5-[2-(2-pyridyl)-1H-benzimidazol-1-yl]pentyl}oxy-(11aS)-1,2,3,11a-tetrahydro-5H-pyrrolo[2,1-c][1,4]benzodiazepin-5-one] | 1.0 °C | 1.2 °C |  |  |  |  |  |  |  |  |  |  |  |  | 
COc1cc2c(cc1OCCCCCn1c(-c3ccc(OCc4ccccc4)cc3)nc3ccc(N4CCOCC4)cc31)N=C[C@@H]1CCCN1C2=O [Compound 11c, 7-Methoxy-8-{5-[2-[(4-(benzyloxy)phenyl)-6-morpholino]benzimidazol-1-yl]pentyl}oxy-(11aS)-1,2,3,11a-tetrahydro-5H-pyrrolo[2,1-c][1,4]benzodiazepin-5-one] | 2.9 °C | 3.2 °C | 0.603 µM | 1.55 µM | 2.69 µM | −4.24 | −5.83 | −5.00 | 1.55 µM | 0.759 µM | 2.29 µM | 2.19 µM | 2.19 µM | 1.95 µM | 
CCOC(=O)c1ccc2nc(-c3ccc(OCc4ccccc4)cc3)n(CCCCCOc3cc4c(cc3OC)C(=O)N3CCC[C@H]3C=N4)c2c1 [Compound 11d, Ethyl-2-[4-(benzyloxy)phenyl]-[(5-(11aS)-7-methoxy-1,2,3,11a-tetrahy-dro-5H-pyrrolo[2,1-c][1,4]benzodiazepin-5-one-8-yl)oxypentyl]-2-benzimidazol-6-carboxylate] | 2.0 °C | 3.0 °C |  |  |  |  |  |  |  |  |  |  |  |  | 
COC(=O)c1ccc2nc(-c3cn(C)c4ccccc34)n(CCCCOc3cc4c(cc3OC)C(=O)N3CCC[C@H]3C=N4)c2c1 [Compound 14, Methyl-1-[(4-(11aS)-7-methoxy-1,2,3,11a-tetrahydro-5H-pyrrolo[2,1-c][1,4]benzodiazepin-5-one-8-yl)oxybutyl]-2-(1-methyl-3-indolyl)benzimidazol-6-carboxylate] | 1.5 °C | 2.0 °C |  |  |  | −4.92 | −6.19 | −5.65 |  |  |  |  |  |  | Log10 GI50 [1]: −6.88 mol/L; Log10 GI50 [2]: −6.27 mol/L; Log10 GI50 (CNS cancer cell lines): −6.00 mol/L; Log10 GI50 (Breast cancer cell lines): −6.14 mol/L; Log10 GI50 (Renal cancer cell lines): −6.10 mol/L; Log10 GI50 (Colon cancer cell lines): −6.04 mol/L; Log10 GI50 [3]: −6.04 mol/L; Log10 GI50 [4]: −6.62 mol/L; Log10 GI50 [5]: −6.08 mol/L
COc1cc2c(cc1O)N=CC1CCCN1C2=O (centres unmarked) [DC-81, reference compound] | 0.3 °C | 0.7 °C |  |  |  |  |  |  |  |  |  |  |  |  | 
